Where two headings read alike, the source gives them in different places. Square brackets hold non-standard residues; d marks the D form. Ends that are not written are not given here. Peptide text beside a SMILES is read from it. * marks the point of attachment. X1 = CC(=O)N[C@@H]1[C@@H](O[C@@H]2O[C@H](CO)[C@H](O)[C@H](O)[C@H]2O)[C@@H](O)[C@@H](CO[C@@H]2O[C@H](CO)[C@@H](O[C@@H]3O[C@H](CO)[C@H](O)[C@H](O[C@]4(C(=O)O)C[C@H](O)[C@@H](NC(C)=O)[C@H]([C@H](O)[C@H](O)CO)O4)[C@H]3O)[C@H](O[C@@H]3O[C@@H](C)[C@@H](O)[C@@H](O)[C@@H]3O)[C@H]2NC(C)=O)O[C@@H]1*; Phe(4-SO3H) = N[C@@H](Cc1ccc(S(=O)(=O)O)cc1)C(=O)O; Mca = COc1ccc2c(CC(=O)*)cc(=O)oc2c1
Key:
human P-selectin [1] = molecular target: T1, human P-selectin (Homo sapiens, UniProt P16109); test: Biacore binding assay, human P-selectin
T1 sequence (P16109 42-830): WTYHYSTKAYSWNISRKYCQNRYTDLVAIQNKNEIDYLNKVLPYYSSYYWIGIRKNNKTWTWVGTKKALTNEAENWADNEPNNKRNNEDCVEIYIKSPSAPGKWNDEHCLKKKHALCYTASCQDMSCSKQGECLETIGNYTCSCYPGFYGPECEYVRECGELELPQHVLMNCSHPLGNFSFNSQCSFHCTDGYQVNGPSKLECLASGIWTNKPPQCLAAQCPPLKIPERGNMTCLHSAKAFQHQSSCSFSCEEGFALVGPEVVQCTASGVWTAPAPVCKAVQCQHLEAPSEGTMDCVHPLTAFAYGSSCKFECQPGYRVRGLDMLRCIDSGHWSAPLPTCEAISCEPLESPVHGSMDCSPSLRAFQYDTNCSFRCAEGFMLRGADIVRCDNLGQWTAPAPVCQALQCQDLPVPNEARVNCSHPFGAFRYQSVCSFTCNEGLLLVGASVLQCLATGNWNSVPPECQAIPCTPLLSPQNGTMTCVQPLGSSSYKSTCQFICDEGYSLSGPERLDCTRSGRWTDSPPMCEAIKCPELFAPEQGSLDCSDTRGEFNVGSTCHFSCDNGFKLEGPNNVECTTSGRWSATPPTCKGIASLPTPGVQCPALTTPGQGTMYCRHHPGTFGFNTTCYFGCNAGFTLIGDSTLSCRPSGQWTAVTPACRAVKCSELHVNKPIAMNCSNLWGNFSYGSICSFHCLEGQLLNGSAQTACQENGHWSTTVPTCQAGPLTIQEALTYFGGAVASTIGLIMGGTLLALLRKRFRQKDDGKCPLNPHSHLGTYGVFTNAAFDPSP
Protocol: (§1) Bound peptides were detected using Alexa-488 labeled anti-human IgG antibody (5 μg/mL). Three lectins RCA-1, AAL, and PNA were used to confirm the sequence of enzymatic steps. Monoclonal antibodies CHO131, PSG2 antibody and PL-1 were used to confirm the presence of SLex, tyrosine sulfates, and the peptide sequence, respectively. Biacore binding analysis to human P-selectin with observed rate constants for (D) GSnP-6, kon 3.1×10^5 M^−1s^−1, koff 6.9×10^3 M^−1s^−; GSn2P-6, kon6.4×10^5 M^−1s^−1, koff 6.8×10^3 M^−1s. Biacore binding analysis to mouse P-selectin with observed rate constants for (E) GsnP-6, kon 4.9×10^4 M^−1s^−1, koff 8.0×10^3 M^−1s^−; GSn2P-6 kon 5.3×10^4 M^−1s^−1, koff 9.0×10^3 M^−1s. (F) Temperature- and pH-dependent stability studies of GSnP-6.
(§2) Dissociation constants (Kd) were determined using a Biacore binding assay after initial capture of biotinylated GS(n)P-6 onto streptavidin-coated sensor chips followed by flow through of P-, L- or E-sel-Ig (2.5 to 60 μg/mL). […] The Kd of GSnP-6 to murine P-selectin was ˜9-fold lower than to human P-selectin.

mouse P-selectin = molecular target: T2, mouse P-selectin (Mus musculus, UniProt Q01102); test: Biacore binding assay, mouse P-selectin
T2 sequence (Q01102 42-768): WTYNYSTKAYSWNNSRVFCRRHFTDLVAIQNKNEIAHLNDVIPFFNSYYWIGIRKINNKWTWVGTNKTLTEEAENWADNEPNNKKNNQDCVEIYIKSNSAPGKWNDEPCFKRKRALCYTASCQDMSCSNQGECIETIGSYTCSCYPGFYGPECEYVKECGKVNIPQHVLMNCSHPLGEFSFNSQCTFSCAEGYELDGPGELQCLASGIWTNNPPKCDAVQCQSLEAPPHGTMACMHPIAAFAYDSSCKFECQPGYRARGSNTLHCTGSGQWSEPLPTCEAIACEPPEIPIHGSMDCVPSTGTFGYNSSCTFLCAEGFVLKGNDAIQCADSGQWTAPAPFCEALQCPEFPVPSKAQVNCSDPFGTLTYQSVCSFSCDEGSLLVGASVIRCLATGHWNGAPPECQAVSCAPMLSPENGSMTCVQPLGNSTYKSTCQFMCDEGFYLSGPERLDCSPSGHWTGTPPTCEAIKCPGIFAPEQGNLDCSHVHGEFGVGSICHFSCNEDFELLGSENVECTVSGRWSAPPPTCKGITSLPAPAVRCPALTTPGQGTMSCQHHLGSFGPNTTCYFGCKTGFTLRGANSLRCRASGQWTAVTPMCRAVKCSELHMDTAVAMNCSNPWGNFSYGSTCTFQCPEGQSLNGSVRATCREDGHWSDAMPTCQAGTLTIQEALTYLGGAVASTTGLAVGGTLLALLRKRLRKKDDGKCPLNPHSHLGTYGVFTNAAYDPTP
Protocol: as §1, §2

[2] = tested on: P-selectin (recombinant Ig chimera); test: Microarray binding screen of glycopeptide mimics, P-selectin; design: species or system human and mouse; settings: selectin Ig chimeras 5-20 μg/mL, Alexa-488 anti-human IgG
Protocol: as §1
Binding affinities of PSGL-1 mimics towards selectins was initially screened using a microarray in which glycosulfopeptides and glycan standards (Sialyl Le^x, NA2, NA2,3, NA2,6 and LNnT) were printed on a NHS-activated glass slide. The slide was then incubated with recombinant Ig chimeras of P-, L-, or E-selectin (5-20 μg/mL) followed by Alexa-488 labeled anti-human IgG antibody (5 μg/mL). […] Binding of glycopeptides mimics to selectins was […] dependent and inhibited by EDTA.

[3] = Chemical stability at low pH and at high temperature (RP-HPLC); assay type: physicochemical; settings: sodium acetate/acetic acid buffer pH 5, 37° C.; and 2 mM phosphate buffer pH 7.5, 60° C.
Protocol: as §1
The chemical stability of GSnP-6 was evaluated under low pH conditions by incubating the compound in sodium acetate/acetic acid buffer at pH 5, 37° C., as well as under high temperature conditions by incubation in 2 mM phosphate buffer at pH 7.5, 60° C. (FIG. 3E).

human P-selectin [4] = molecular target: T1, human P-selectin; settings: comparison value for P-selectin; read-out: Kd of native PSGL-1 (comparison value); cited from earlier work

## COc1ccc2c(CC(=O)NCCCC[C@H](N)C(=O)N[C@@H](CCC(=O)O)C(=O)N[C@@H](Cc3ccc(S(=O)(=O)O)cc3)C(=O)N[C@@H](CCC(=O)O)C(=O)N[C@@H](Cc3ccc(S(=O)(=O)O)cc3)C(=O)N[C@@H](CC(C)C)C(=O)N[C@@H](CC(=O)O)C(=O)N[C@@H](Cc3ccc(S(=O)(=O)O)cc3)C(=O)N[C@@H](CC(=O)O)C(=O)N[C@@H](Cc3ccccc3)C(=O)N[C@@H](CC(C)C)C(=O)N3CCC[C@H]3C(=O)N[C@@H](CCC(=O)O)C(=O)N[C@H](C(=O)N[C@@H](CCC(=O)O)C(=O)N3CCC[C@H]3C(=O)N[C@@H](CC(C)C)C(=O)O)[C@@H](C)O[C@H]3O[C@H](CO[C@@H]4O[C@H](CO)[C@@H](O[C@@H]5O[C@H](CO)[C@H](O)[C@H](O[C@]6(C(=O)O)C[C@H](O)[C@@H](NC(C)=O)[C@H]([C@H](O)[C@H](O)CO)O6)[C@H]5O)[C@H](O[C@@H]5O[C@@H](C)[C@@H](O)[C@@H](O)[C@@H]5O)[C@H]4NC(C)=O)[C@H](O)[C@H](O[C@@H]4O[C@H](CO)[C@H](O)[C@H](O)[C@H]4O)[C@H]3NC(C)=O)cc(=O)oc2c1 [GSn2P-6] (H-K(Mca)E[Phe(4-SO3H)]E[Phe(4-SO3H)]LD[Phe(4-SO3H)]DFLPET(X1)EPL-OH; N-terminus assumed)
Human P-selectin [1]; Biacore observed rate constant
  koff: 0.0068 s⁻¹
  kon: 640000 M⁻¹ s⁻¹
Human P-selectin [1]; biotinylated GS(n)P-6 captured on streptavidin chip, P-sel-Ig 2.5 to 60 μg/mL, read-out: Dissociation constant (Kd) to human P-selectin
  Kd: 14 nM
Mouse P-selectin; read-out: koff, mouse P-selectin
  koff: 0.009 s⁻¹
Mouse P-selectin; read-out: kon, mouse P-selectin
  kon: 53000 M⁻¹ s⁻¹

## GSP-6: Tyrosine O-sulfate series (X: O; R=H); native N-terminal PSGL-1 sequence containing tyrosine sulfate, hexasaccharide glycan (EYEYLDYDFLPETEPPE; also: tyrosine O-sulfate, positions not given here, hexasaccharide glycan, site not given here) [reference compound]
[2]
  binding to P-selectin compared with E- or L-selectin: bound to P-selectin more strongly than to E- or L-selectin
[3]
  chemical stability (degraded products by RP-HPLC): rapidly degrades

B1: native PSGL-1: native P-selectin glycopeptide ligand-1, Kd comparison value (protein, UniProt Q14242 42-412, looked up)
P-selectin glycoprotein …: QATEYEYLDYDFLPETEPPEMLRNSTDTTPLTGPGTPESTTVEPAARRSTGLDAGGAVTELTTELANMGNLSTDSAAMEIQTTQPAATEAQTTQPVPTEAQTTPLAATEAQTTRLTATEAQTTPLAATEAQTTPPAATEAQTTQPTGLEAQTTAPAAMEAQTTAPAAMEAQTTPPAAMEAQTTQTTAMEAQTTAPEATEAQTTQPTATEAQTTPLAAMEALSTEPSATEALSMEPTTKRGLFIPFSVSSVTHKGIPMAASNLSVNYPVGAPDHISVKQCLLAILILALVATIFFVCTVVLAVRLSRKGHMYPVRNYSPTEMVCISSLLPDGGEGPSATANGGLSKAKSPGLTPEPREDREGDDLTLHSFLP
Human P-selectin [4]
  Kd: 73 nM

Source: patent US10253071B2, “Selectin inhibitors, composition, and uses related thereto” (Beth Israel Deaconess Medical Center, Inc., priority 2014, dated 2019)
